Like-named read-outs stand apart in the source and are kept apart here.

Consider two compounds from patent publication EP1285918A1, “C7 Ester substituted taxanes as antitumor agents” (Florida State University Research Foundation, Inc., priority 2001, dated 2003).

Data set [1] concerns SKMES Human Lung Carcinoma Xenograft. As for the experimental part: Antitumor compounds were formulated for oral administration over a wide dose range in a study to investigate the efficacy of this compound against the SKMES human lung cancer xenograft. The antitumor compounds were prepared in the following vehicle: 5% ethanol, 5% Cremophor and 90% isotonic saline.
Female Nu/Nu mice (6-8 weeks of age; implanted with 1 mm^3 SKMES lung carcinoma fragments in the flank) were sorted into treatment groups of six mice each. SKMES size ranges and group mean SKMES size ranges were 126-448 mg and 238-241 mg, respectively. […] Treatments were administered as a single oral bolus on Day 1, and the study was terminated on Day 60.
The mean days of survival is the number of days after which a SKMES neoplasm reached a size of 2.0 g and the animal was euthanized. A complete response is obtained if the tumor is not palpable at the end of the study. A partial response is obtained if the tumor shrinks to a size smaller than its size on Day 1 of the study. […]

Data set [2] deals with MX-1 Human Breast Carcinoma Xenograft. The note with it: for Complete Responses / Partial Responses / Stable Disease / Survivors / Toxic Deaths / MDS (n): 6 mice/group, study end Day 60; for MDS (n): days until tumor reached 1.5 g. How it is done: The antitumor compounds were prepared in the following vehicle: 5% ethanol, 5% Cremophor and 90% isotonic saline.
Female Nu/Nu mice (12-13 weeks of age; implanted with 1 mm^3 MX-1 human breast carcinoma fragments in the flank) were sorted into treatment groups of six mice each (MX-1 tumor size ranges and group mean MX-1 tumor size ranges were 56-138 mg and 68-74 mg, respectively). […] All treatments were administered as a single oral bolus on Day 1, and the study was terminated on Day 60.
The mean days of survival is the number of days after which an MX-1 neoplasm reached a size of 1.5 g and the animal was euthanized. A complete response is obtained if the tumor is not palpable at the end of the study. A partial response is obtained if the tumor shrinks to a size smaller than its size on Day 1 of the study.

Setting [3] is: SKMES, 1418 single oral bolus 90 mg/kg (Group 4), 6 mice, Day 60.
The mark [4] stands for this setting: 70 mg/kg single oral bolus Day 1.
[5] abbreviates: 100 mg/kg single oral bolus Day 1.

On to `CCC(=O)O[C@H]1C[C@H]2OC[C@@]2(OC(C)=O)[C@H]2[C@H](OC(=O)c3ccccc3)[C@]3(O)C[C@H](OC(=O)[C@H](O)[C@@H](NC(=O)OC(C)(C)C)c4cccs4)C(C)=C([C@@H](O)C(=O)[C@]12C)C3(C)C` [Compound 1418], for which the “Toxic Deaths” value in data set [1] (90 mg/kg single oral bolus Day 1, 6 mice/group, study end Day 60) came to 0. In data set [1] (SKMES, 1418 single oral bolus 90 mg/kg (Group 4)), this compound gave a total response rate of 100%. In data set [1] (setting [3]), the Complete Responses result is reported as “four” and the Partial Responses entry is given as “two”. Moreover, in data set [1] (po, 90 mg/kg), the “% Total Response” value is reported as 100%, the “Complete Responses” value was 4 and the “Partial Responses” value is 2.
For `CC(=O)O[C@@]12CO[C@@H]1C[C@H](O)[C@@]1(C)C(=O)[C@H](O)C3=C(C)[C@@H](OC(=O)[C@H](O)[C@@H](NC(=O)OC(C)(C)C)c4ccccc4)C[C@@](O)([C@@H](OC(=O)c4ccccc4)[C@H]21)C3(C)C` [docetaxel, reference compound], in data set [2] (setting [4]), the “Complete Responses” value was 0, the “Partial Responses” value came to 0, the “Stable Disease” value came to 0 and the Survivors is on record as 0. For the same compound, in data set [2] (setting [4]), the “Toxic Deaths” value was 0 and the “MDS (n)” value was 27.9 ± 4.3 (6) days. Further, in data set [2] (setting [5]), the “Complete Responses” value amounted to 0, the “Partial Responses” value is reported as 1, the “Stable Disease” value was found to be 0 and the Survivors came out at 1. Further, in data set [2] (setting [5]), the “Toxic Deaths” value came out at 0 and the “MDS (n)” value is 27.1 ± 3.5 (5) days. For the same compound, the Partial Response result in data set [2] (MX-1, single oral bolus, Taxol 40 and 28 mg/kg groups together, Taxotere 100 and 70 mg/kg groups together, Day 60) is recorded as “One”.
